From ChEMBL document CHEMBL1201862, “PubChem BioAssay data set” (2004)
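How tested: cells in 96-well plates exposed to compound for 48 hours at five concentrations. GI50 is the concentration that inhibits growth by half.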 The source made the active and inactive calls. No stated cut-off is given here; in the data, active = GI50 up to about 1.1 µM and inactive = higher.

Tests used:
Assay in all cases: DTP human tumour cell line panel, 48 h
IGROV-1 = test system: IGROV-1
SN12C = test system: SN12C
A549 = test system: A549
SNB-75 = test system: SNB-75
DU-145 = test system: DU-145
SF-268 = test system: SF-268
KM12 = test system: KM12
MDA-MB-435 = test system: MDA-MB-435
HCC 2998 = test system: HCC 2998
HCT-116 = test system: HCT-116
SK-MEL-28 = test system: SK-MEL-28
MDA-N = test system: MDA-N
OVCAR-8 = test system: OVCAR-8
NCI/ADR-RES = test system: NCI/ADR-RES
MDA-MB-231 = test system: MDA-MB-231
SF-539 = test system: SF-539
K562 = test system: K562
U-251 = test system: U-251
CCRF-CEM = test system: CCRF-CEM
RPMI-8226 = test system: RPMI-8226

Measured: GI50

Sc1nc2c(c(-c3nc(S)nc4c3CCCCCCCCCC4)n1)CCCCCCCCCC2
inactive: IGROV-1 > 100 µM | SN12C > 100 µM | A549 > 100 µM | SNB-75 > 100 µM | DU-145 > 100 µM | SF-268 > 100 µM | KM12 > 100 µM | MDA-MB-435 > 100 µM | HCC 2998 > 100 µM | HCT-116 > 100 µM | SK-MEL-28 > 100 µM | MDA-N > 100 µM | OVCAR-8 > 100 µM | NCI/ADR-RES > 100 µM | MDA-MB-231 > 100 µM | SF-539 > 100 µM | K562 > 100 µM | U-251 > 100 µM

COc1ccc2c(c1)CCCN1CCc3ccccc3C21 (stereo not drawn)
inactive: IGROV-1 50 µM | SN12C 23.3 µM | CCRF-CEM 26.1 µM | A549 37.3 µM | SNB-75 16.4 µM | DU-145 > 100 µM | SF-268 39.9 µM | KM12 34.7 µM | MDA-MB-435 21.7 µM | HCC 2998 69 µM | HCT-116 16.8 µM | SK-MEL-28 36.5 µM | MDA-N 18.9 µM | OVCAR-8 39.9 µM | NCI/ADR-RES 16.8 µM | MDA-MB-231 23.9 µM | SF-539 28.6 µM | K562 45.7 µM | U-251 28.4 µM

c1ccc2c(C3CCN(CCN4CCOCC4)C3)c[nH]c2c1 (stereo not drawn)
inactive: IGROV-1 > 100 µM | SN12C > 100 µM | CCRF-CEM > 100 µM | A549 > 100 µM | SNB-75 > 100 µM | DU-145 > 100 µM | SF-268 > 100 µM | KM12 > 100 µM | MDA-MB-435 > 100 µM | HCC 2998 47 µM | HCT-116 > 100 µM | SK-MEL-28 > 100 µM | MDA-N > 100 µM | OVCAR-8 > 100 µM | NCI/ADR-RES > 100 µM | MDA-MB-231 > 100 µM | K562 > 100 µM | U-251 > 100 µM | RPMI-8226 > 100 µM

COc1ccc2nc3n(c2c1)CCc1cc(OC)c(OC)cc1-3
inactive: SN12C 63.1 µM | CCRF-CEM 49.1 µM | A549 44.5 µM | SNB-75 40.7 µM | DU-145 83.8 µM | SF-268 > 100 µM | KM12 30 µM | MDA-MB-435 34.5 µM | HCC 2998 26 µM | HCT-116 47.8 µM | SK-MEL-28 78 µM | MDA-N 44 µM | OVCAR-8 41.6 µM | NCI/ADR-RES 45.2 µM | MDA-MB-231 > 100 µM | SF-539 88.9 µM | K562 37.9 µM | U-251 60.8 µM

Cc1cc2c3c(ccc4[nH]cc(c43)CN2c2ccc(NS(C)(=O)=O)cc2)n1
inactive: IGROV-1 48.4 µM | CCRF-CEM 8.41 µM | A549 25.6 µM | SNB-75 16.9 µM | DU-145 49.1 µM | SF-268 3.28 µM | KM12 > 100 µM | MDA-MB-435 > 100 µM | HCC 2998 30.2 µM | HCT-116 11.4 µM | SK-MEL-28 > 100 µM | MDA-N > 100 µM | OVCAR-8 29 µM | NCI/ADR-RES > 100 µM | MDA-MB-231 22 µM | K562 90.6 µM | U-251 22.5 µM | RPMI-8226 13.5 µM

O=C(O)CSc1nnc(CCCCCCCCc2nnc(SCC(=O)O)o2)o1
inactive: IGROV-1 > 100 µM | SN12C > 100 µM | CCRF-CEM > 100 µM | A549 > 100 µM | SNB-75 21.9 µM | DU-145 > 100 µM | SF-268 > 100 µM | KM12 > 100 µM | MDA-MB-435 > 100 µM | HCC 2998 > 100 µM | HCT-116 > 100 µM | SK-MEL-28 > 100 µM | MDA-N > 100 µM | OVCAR-8 55.5 µM | NCI/ADR-RES > 100 µM | MDA-MB-231 > 100 µM | K562 > 100 µM | U-251 > 100 µM | RPMI-8226 > 100 µM

CCOc1cc2c(=O)oc3c(OC)ccc4ccc(c1OC)c2c43
inactive: IGROV-1 > 100 µM | SN12C > 100 µM | CCRF-CEM > 100 µM | A549 28.5 µM | SNB-75 64.3 µM | DU-145 > 100 µM | SF-268 > 100 µM | KM12 > 100 µM | MDA-MB-435 > 100 µM | HCC 2998 77.3 µM | HCT-116 6.64 µM | SK-MEL-28 > 100 µM | MDA-N > 100 µM | OVCAR-8 25.2 µM | NCI/ADR-RES 36.2 µM | MDA-MB-231 14.5 µM | SF-539 > 100 µM | K562 > 100 µM | U-251 34.5 µM

CC(=O)C1C(=O)C(=O)N(c2ccc([N+](=O)[O-])cc2)C1=O (stereo not drawn)
inactive: IGROV-1 > 100 µM | SN12C > 100 µM | CCRF-CEM > 100 µM | A549 80.4 µM | SNB-75 > 100 µM | DU-145 > 100 µM | SF-268 > 100 µM | KM12 > 100 µM | MDA-MB-435 > 100 µM | HCC 2998 > 100 µM | HCT-116 > 100 µM | SK-MEL-28 > 100 µM | MDA-N > 100 µM | OVCAR-8 > 100 µM | NCI/ADR-RES > 100 µM | MDA-MB-231 > 100 µM | SF-539 > 100 µM | U-251 > 100 µM
